# Source: patent US20080045584A1, “Use of Docetaxel for Treating Hepatocellular Carcinoma” (priority 1999, published 2008)
# Where two headings read alike, the source gives them in different places.
# Columns and labels:
# Hep G2 cells [1] = test: Cell viability study: MTT assay; assay type: cell-based, human; conditions: Homo sapiens, HepG2, Hep G2, 10 μM, read-out: viability, % of control
# Method: The experiments detailed below involve human hepatoma cell lines Hep3B (ATCC designation HB 8064), HepG2 (ATCC designation HB 8065) and HA22T/VGH, and murine hepatoma cell line Hepa 1-6. These cells were cultured in DMEM (GIBCO, BRL) containing 10% fetal bovine serum (Hyclone), 0.01 mg/ml gentamycin and 0.1 mM non-essential amino acid. Cells were grown in a CO2 incubator at 37° C., with 5% CO2 and 95% filtered air.
# Paclitaxel was dissolved in dimethylsulfoxide (DMSO) and docetaxel was dissolved in ethanol as stock solutions. The final concentration of vehicle was less than 0.1%.
# Cells were cultured in a 96 well cell culture cluster (COSTAR) at a density of 4×10^4 cells/ml. After drug treatment for 24 hours or 72 hours, medium was discarded and replaced with an equal volume (100 μl) of fresh medium containing MTT (0.456 mg/ml; 3-[4,5-Dimethylthiazol-2-yl]2,5-diphenyl-tetrazolium bromide) and incubated for 1.5 hours at 37° C. The fresh medium was then discarded, and 100 μl DMSO was then added. Cell viability was determined by colorimetric comparison by reading OD values from a microplate reader (SPECTRA MAX250) at an absorption wavelength of 570 nm.
# Data are the mean i standard error of mean from duplicate samples of three independent experiments.
# HA22T/VGH cells [2] = test: Propidium iodide (PI) exclusion assay, flow cytometry; assay type: cell-based, human
# Method: (§1) Cells were grown on 5-cm^2 flasks (CORNING) and treated with paclitaxel and docetaxel as set out above. Propidium iodide (10 μg/ml) was then added for 15 minutes incubation at 37° C. Then, medium was collected prior to harvest of the adherent cells. Both suspended and attached cells were collected and resuspended with 500 μl PBS for flow cytometry analysis as set out below. Debris signals were removed by FSC-SSC gating.
# (§2) Cells (10000) were analyzed on a Becton Dickinson FACS Calibur flow cytometer using an argon-ion laser (15 mWatt) with incident beam at 488 nm. For PI exclusion assay, red fluorescence was collected through a 585 nm filter and the cell debris signals were removed by FSC-SSC gating. Data were acquired and analyzed using FACS/CELL Quest software on a Power Macintosh 7600/120 computer. Apoptotic cells and cells at specific cycle phases were determined by ModFit LT software.
# (§3) Data are mean±standard error of mean from duplicated sample of at least three independent experiments. Cells were treated with drugs for 24-72 hours, and membrane permeability was measured by flowcytometric analysis of propidium exclusion in viable hepatoma cells. Data are the percentage of cells with intact cell membrane as compared to control
# Hep 3B cells [3] = test: as above; assay type: cell-based, human
# Method: as §1, §2, §3
# Hep G2 cells [4] = test: as above; assay type: cell-based, human
# Method: as §1, §2, §3
# Hep G2 cells [5] = test: DNA fragmentation electrophoresis analysis; assay type: cell-based, human; conditions: Hep G2, 0.1 and 1 μM, 72 hours
# Method: DNA fragmentation assessment was according to the method Herrmann et al, Nucleic Acids Res., 22, 5506-5507, 1994.
# Briefly, HEP G2 cells (2×10^7) were treated for 72 hours with paclitaxel and docetaxel as set out above and centrifuged. The thus obtained cell pellets were resuspended with NP-40 lysis buffer (1% NP-40 in 20 mM EDTA, 50 mM Tris-HCl, pH 7.5). After lysis of cells for a few seconds, the supernatants were collected (5 minutes at 1600×g). The extraction was repeated with the same lysis buffer. SDS (final concentration 1%) and RNase were added (final concentration 2.5 μg/μl) to supernatants and incubated for 2 hours at 56° C. followed by digestion with proteinase K (2.5 μg/μl) for 2 hours at 37° C. Then, the mixtures were added to 10 M ammonium acetate prior to 100% ethanol precipitation for 30 minutes at −20° C. The DNA was collected by centrifugation (10 min at 12000 ×g) followed by electrophoresis on 1.5% agarose gel.
# In FIG. 3, M is a 100 base pair marker. […] Lanes 2 and 3 show mean paclitaxel (0.1 and 1 μM) treatment groups. Lanes 4 and 5 show mean docetaxel (0.1 and 1 μM) treatment groups.
# Hepa 1-6 cells [6] = test: Propidium iodide (PI) exclusion assay, flow cytometry; assay type: cell-based, murine
# Method: as §1, §2, §3
# HA22T/VGH cells [7] = test: Flow cytometric analysis of DNA content (cell cycle, sub-G0/G1); assay type: cell-based, human; conditions: for % of apoptotic (sub-G0/G1) cells: 72 hrs
# Method: (§4) Lysing buffer (0.5% Triton X-100, 0.2 μg/ml Na2EDTA.2H2O, and 1% bovine serum albumin in PBS) was added to the cell pellets which were then left on ice for 15 minutes. 100% methanol pre-cooled to −20° C. was then added to the mixture, which was then centrifuged at 300×g for 5 minutes. The supernatant was discarded and the cell pellet was washed with PBS. The washed pellet was stained with a DNA staining solution (50 μg/ml propidium iodide, and 5 kunitz/ml of RNase A) for 30 minutes at 4° C. in the dark. The DNA content of each cell was measured using a Becton Dickinson FACS Calibur flow cytometer as set out below.
# as §2
# (§5) Table 1 gives figures for cell membrane permeability of the hepatoma cells, following treatment with paclitaxel and docetaxel. Table 2 details the percentage of apoptotic (sub-G0/G1) cells found after paclitaxel and docetaxel treatment.
# Hep 3B cells [8] = test: as above; assay type: cell-based, human; conditions: for % of apoptotic (sub-G0/G1) cells: 72 hrs
# Method: as §4, §2, §5
# Hep G2 cells [9] = test: as above; assay type: cell-based, human; conditions: Hep G2, 1 μM, 24 hours
# Method: as §4, §2, §5
# hepatocellular carcinoma = conditions: phase II clinical trial; cited from earlier work
# Hepa 1-6 cells [10] = test: Flow cytometric analysis of DNA content (cell cycle, sub-G0/G1); assay type: cell-based, murine; conditions: for % of apoptotic (sub-G0/G1) cells: Hepa 1-6, 24 hrs
# Method: as §4, §2, §5
# [11] = system: hepatocellular carcinomas; conditions: cited from earlier work
smiles,measurement,setting,value
CC(=O)O[C@H]1C(=O)[C@@]2(C)[C@H]([C@H](OC(=O)c3ccccc3)[C@]3(O)C[C@H](OC(=O)[C@H](O)[C@@H](NC(=O)c4ccccc4)c4ccccc4)C(C)=C1C3(C)C)[C@]1(OC(C)=O)CO[C@@H]1C[C@@H]2O [Paclitaxel],viability at 10 µM,Hep G2 cells [1]; 24 hours,61.8%
same,viability at 10 µM,Hep G2 cells [1]; 72 hours,39.5%
same,percentage of cells with intact cell membrane as compared to control,"HA22T/VGH cells [2]; 24 hrs, 0.01 μM",94.08 ± 18.6%
same,percentage of cells with intact cell membrane as compared to control,"HA22T/VGH cells [2]; 24 hrs, 0.1 μM",40.03 ± 7.8%
same,percentage of cells with intact cell membrane as compared to control,"HA22T/VGH cells [2]; 24 hrs, 1 μM",34.24 ± 8.3%
same,percentage of cells with intact cell membrane as compared to control,"HA22T/VGH cells [2]; 72 hrs, 0.01 μM",92.58 ± 21.3%
same,percentage of cells with intact cell membrane as compared to control,"HA22T/VGH cells [2]; 72 hrs, 0.01 μM, listed as paclitaxel",92.58%
same,percentage of cells with intact cell membrane as compared to control,"HA22T/VGH cells [2]; 72 hrs, 0.1 μM",93.38 ± 32.5%
same,percentage of cells with intact cell membrane as compared to control,"HA22T/VGH cells [2]; 72 hrs, 1 μM",49.32 ± 8.3%
same,percentage of cells with intact cell membrane as compared to control,"Hep 3B cells [3]; 24 hrs, 0.01 μM",77.35 ± 11.7%
same,percentage of cells with intact cell membrane as compared to control,"Hep 3B cells [3]; 24 hrs, 0.1 μM",63.50 ± 4.0%
same,percentage of cells with intact cell membrane as compared to control,"Hep 3B cells [3]; 24 hrs, 1 μM",52.28 ± 4.1%
same,percentage of cells with intact cell membrane as compared to control,"Hep 3B cells [3]; 72 hrs, 0.01 μM",57.00 ± 7.9%
same,percentage of cells with intact cell membrane as compared to control,"Hep 3B cells [3]; 72 hrs, 0.1 μM",8.09 ± 2.3%
same,percentage of cells with intact cell membrane as compared to control,"Hep 3B cells [3]; 72 hrs, 1 μM",1.90 ± 0.3%
same,percentage of cells with intact cell membrane as compared to control,"Hep G2 cells [4]; Hep G2, 24 hrs, 0.01 μM",93.63 ± 1.1%
same,percentage of cells with intact cell membrane as compared to control,"Hep G2 cells [4]; Hep G2, 24 hrs, 0.1 μM",85.71 ± 6.8%
same,percentage of cells with intact cell membrane as compared to control,"Hep G2 cells [4]; Hep G2, 24 hrs, 1 μM",66.71 ± 7.2%
same,percentage of cells with intact cell membrane as compared to control,"Hep G2 cells [4]; Hep G2, 72 hrs, 0.01 μM",56.58 ± 28.7%
same,percentage of cells with intact cell membrane as compared to control,"Hep G2 cells [4]; Hep G2, 72 hrs, 0.1 μM",43.79 ± 11.7%
same,percentage of cells with intact cell membrane as compared to control,"Hep G2 cells [4]; Hep G2, 72 hrs, 1 μM",13.27 ± 4.3%
same,"DNA fragmentation (agarose gel, FIG. 3)",Hep G2 cells [5],induced DNA fragmentation
same,percentage of cells with intact cell membrane as compared to control,"Hepa 1-6 cells [6]; Hepa 1-6, 24 hrs, 0.01 μM",93.17 ± 3.8%
same,percentage of cells with intact cell membrane as compared to control,"Hepa 1-6 cells [6]; Hepa 1-6, 24 hrs, 0.1 μM",67.20 ± 4.4%
same,percentage of cells with intact cell membrane as compared to control,"Hepa 1-6 cells [6]; Hepa 1-6, 24 hrs, 1 μM",62.65 ± 7.6%
same,percentage of cells with intact cell membrane as compared to control,"Hepa 1-6 cells [6]; Hepa 1-6, 72 hrs, 0.01 μM",62.95 ± 5.6%
same,percentage of cells with intact cell membrane as compared to control,"Hepa 1-6 cells [6]; Hepa 1-6, 72 hrs, 0.1 μM",27.79 ± 1.3%
same,percentage of cells with intact cell membrane as compared to control,"Hepa 1-6 cells [6]; Hepa 1-6, 72 hrs, 1 μM",15.51 ± 1.0%
same,% of apoptotic (sub-G0/G1) cells,HA22T/VGH cells [7]; 0.1 mM (table head; text: μM),0%
same,% of apoptotic (sub-G0/G1) cells,"HA22T/VGH cells [7]; 0.1 mM (table head; text: μM), listed as paclitaxel",No significant sub-G0/G1 population
same,% of apoptotic (sub-G0/G1) cells,HA22T/VGH cells [7]; 1 mM (table head; text: μM),0%
same,% of apoptotic (sub-G0/G1) cells,"HA22T/VGH cells [7]; 1 mM (table head; text: μM), listed as paclitaxel",No significant sub-G0/G1 population
same,effect on cell cycle progression,"HA22T/VGH cells [7]; increasing concentrations 0.001 μM to 1 μM, 24 hours",elevated percentage of G2/M cells
same,effect on cell cycle progression,"Hep 3B cells [8]; 0.1 μM or 1 μM, 24 hours",G2/M arrest
same,% of apoptotic (sub-G0/G1) cells,Hep 3B cells [8]; 0.1 mM (text: μM),38.37%
same,% of apoptotic (sub-G0/G1) cells,Hep 3B cells [8]; 1 mM (text: μM),47.01%
same,effect on cell cycle progression (DNA histogram),Hep G2 cells [9],obvious G2/M phase arrest
same,anti-cancer effect in HCC patients,hepatocellular carcinoma,no significant anti-cancer effect
same,effect on cell cycle progression,"Hepa 1-6 cells [10]; Hepa 1-6, 0.1 μM and 1 μM, 24 hours",G2/M phase arrest
same,cell cycle profile,"Hepa 1-6 cells [10]; Hepa 1-6, 0.1 μM and 1 μM, 72 hours",most of the cells were dead
same,% of apoptotic (sub-G0/G1) cells,Hepa 1-6 cells [10]; 0.01 mM (text: μM),24.02%
same,% of apoptotic (sub-G0/G1) cells,Hepa 1-6 cells [10]; 0.1 mM (text: μM),55.64%
same,% of apoptotic (sub-G0/G1) cells,Hepa 1-6 cells [10]; 1 mM (text: μM),64.38%
COc1cc2c(cc1O)CC[C@@H]1[C@@H]2CC[C@]2(C)[C@@H](O)CC[C@@H]12 [2-methoxyestradiol],tolerability,"[11]; mice, 1 month of daily treatment",well tolerated
same,activity against hepatocellular carcinomas,"[11]; mouse, in vivo",active
